We go through 2 molecules from US5684003A, “5-HT4 receptor agonists” (Nisshin Flour Milling Co., Ltd., priority 1994, dated 1997).

Broadly, the pEC50 is the EC50 on a negative log10 scale, so that one unit is a factor of ten.

Structures are written as SMILES. pEC50: −log10 of the molar value. Like-named read-outs stand apart in the source and are kept apart here.

The nature of data set [1]: Reverse mutation test (Ames test).
The next data set has as its target T1, 5-HT3 receptor (Rattus norvegicus, UniProt P35563).
T1 construct: from tissue; host or cells: whole anesthetized rat (in vivo); endogenous receptor
T1 sequence (P35563 24-483): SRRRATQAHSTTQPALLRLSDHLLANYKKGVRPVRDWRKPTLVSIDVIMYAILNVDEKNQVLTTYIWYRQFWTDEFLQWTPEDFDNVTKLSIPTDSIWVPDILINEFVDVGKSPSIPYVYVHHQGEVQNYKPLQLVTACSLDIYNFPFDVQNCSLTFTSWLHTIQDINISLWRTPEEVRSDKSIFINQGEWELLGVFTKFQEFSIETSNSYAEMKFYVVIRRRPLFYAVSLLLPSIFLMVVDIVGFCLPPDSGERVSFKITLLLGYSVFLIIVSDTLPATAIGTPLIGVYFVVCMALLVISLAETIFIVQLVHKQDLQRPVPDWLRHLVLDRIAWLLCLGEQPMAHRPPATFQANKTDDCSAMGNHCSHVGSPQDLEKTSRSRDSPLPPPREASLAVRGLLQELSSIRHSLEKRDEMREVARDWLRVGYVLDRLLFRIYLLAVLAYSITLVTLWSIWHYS
The experiment in a line: 5-HT3 receptor antagonist activity: inhibition of 2-Me-5-HT-induced reduction in heart rate in anesthetized rats. Type of data set: in vivo. Particulars: iv (jugular vein) 5 minutes before 2-Me-5-HT 0.1 mg/kg, read-out: IC50 (the source's name). The procedure:
For the purpose of studying a receptor selectivity of the present compounds, the 5-HT3 receptor antagonist activity was tested in the following manner. Rats were anesthetized with urethane and heart rate was recorded through femoral artery. The 5-HT3 selective agonist, 2-methyl-5-hydroxytryptamine (2-Me-5-HT) was administered at 0.1 mg/kg through carotid arteries and transient reduction in heart rate was recorded. The test. compounds were administered through jugular vein at 5 minutes before the administration of 2-Me-5-HT, inhibitory rate of reduction in heart rate by the administration of 2-Me-5-HT was calculated and IC50 value was calculated from the inhibitory rate.

The nature of data set [2]: Chromosomal aberration test.
The nature of data set [3]: Two-week repeated oral toxicological investigation in rats. Format: in vivo, rat. Particulars: rats (male, female), 2 weeks, dose figure missing ("a dose of mg/kg"). An excerpt: (§1) The compound of Example 5 was repeatedly administered orally to rats (male, female) over the period of 2 weeks to perform a toxicological investigation.
The next data set in a line: Micronucleus test.
Source text: as §1

For the next data set, the system named is gastric-emptying. The experiment in a line: Gastric-emptying promoting action (semi-solid test meal, fasted rats). Type of data set: in vivo, rat. To be noted: relative to distilled water group (C/D×100). The procedure: The present compounds were evaluated for the gastrointestinal prokinetic action, employing as an index the gastric-emptying promoting action. Fasted rats were orally given the test compound or distilled water. After 60 minutes, 3 ml of a test meal (a semi-solid food) was given into stomach by means of a probe. After 60 minutes, animals were sacrificed and stomach was excised and weighed. After washing out the gastric content, the stomach was again weighed to calculate the gastric content amount. The results were shown in the following table by calculating the gastric emptying rate (C) from the weight of the test meal given (A) and the weight of the test meal retained in the stomach (B), and expressing in terms of the gastric-emptying promoting rate to the gastric-emptying rate of the distilled water-given group(D).
Gastric-emptying rate(C)=(A-B)/A×100
Gastric-emptying promoting rate=C/D×100

Another data set addresses T2, 5-HT4 receptors (Rattus norvegicus, UniProt Q62758).
T2 construct: from tissue; host or cells: rat oesophageal tunica muscularis mucosae
The experiment in a line: Relaxation of carbachol-contracted rat oesophageal tunica muscularis mucosae. Format: cell-based. How it is done: The agonistic activity of oxazabicyclo derivatives and Mosapride on 5-HT4 receptors was determined by the procedure mentioned in Naunyn-Schmiedeberg's Arch Pharmacol (1991) 343:439-446.
The rat oesophageal tunica muscularis mucosae were suspended in organ both containing Krebs-Henseleit solution aerated with a mixed gas (95% O2, 5% CO2) and contracted with carbachol (1×10^-6 M). After the contraction was stabilized, the cumulative administration of the compounds was performed to determine the relaxation of the rat oesophagus pre-contracted with carbachol. The concentration (ED50) to cause 50% relaxation of the carbachol-induced contraction was measured. The result is expressed in terms of -log ED50 and shown in the following table in which higher numerical value indicates higher activity.

The subject of the next data set is gastric motility. The experiment in a line: Gastric motility after meal in beagle dogs (force transducer, Motility Index). Type of data set: in vivo, dog (beagle). To be noted: 60 min after feeding, percentage to MI at 15 minutes before administration. How it is done:
The present compounds were investigated for the gastrointestinal motility activity by the following procedure, by which the gastrointestinal prokinetic action was confirmed.
Beagle dogs inserted with a forced transducer at the anterior wall of stomach were used after a convelescence period of more than one month.
Dogs fasted overnight were given a food (375 g of a dog food) and gastric motility after meal was determined. After 60 minutes of the feeding, the test compounds were intravenously injected and the promoting action on gastric motility after meal was determined. The area under contracting wave forms of gastric motility (Motility Index: MI) was calculated and expressed in terms of percentage to the MI at 15 minutes before the administration of the test compound.

The target of a further data set is 5-HT4 receptor (Cavia porcellus, UniProt O70528). Put plainly: Increase in contraction height of electrically stimulated longitudinal muscle of isolated guinea pig ileum (LMMP). Format: cell-based. Details: key: +: indicates the increase in the contraction height; -: indicates no effect. To be noted: test concentration 10^-7 M. An excerpt: Ileum was excised from guinea pigs to prepare longitudinal muscle samples with approximately 2 cm length. The sample was suspended in Krebs-Henseleit liquid bath supplied with a mixed gas (95% O2, 5% CO2) and subjected to electrical stimulation (1 msec, 0.1 Hz) to record contraction force isometrically. The test compounds were. dissolved in distilled water or DMSO and tested at a concentration of 10^-7 M (but 10^-6 M for Compound 11). The results are shown by the presence or absence of the increase in the contraction height by electrical stimulation before administration of the compound, wherein the symbol "+" indicates the increase in the contraction height, while "-" indicates no effect.
5-HT4 receptor, sequence (O70528 whole entry): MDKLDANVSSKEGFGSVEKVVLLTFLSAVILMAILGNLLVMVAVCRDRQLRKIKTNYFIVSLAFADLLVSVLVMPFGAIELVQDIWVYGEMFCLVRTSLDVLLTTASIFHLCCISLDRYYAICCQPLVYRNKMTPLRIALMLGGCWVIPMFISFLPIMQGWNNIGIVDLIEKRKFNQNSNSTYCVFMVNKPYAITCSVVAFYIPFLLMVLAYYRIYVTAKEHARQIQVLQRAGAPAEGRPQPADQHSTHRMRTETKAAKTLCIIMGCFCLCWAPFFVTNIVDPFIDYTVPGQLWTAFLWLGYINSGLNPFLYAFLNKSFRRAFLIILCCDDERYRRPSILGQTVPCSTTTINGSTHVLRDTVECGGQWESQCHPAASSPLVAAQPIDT
Whether or not the action of the above compounds is that via activation of 5-HT4 receptors was investigated using as 5-HT4 receptor antagonist, SDZ 205-557 (2-methoxy-4-amino-5-chlorobenzoic acid 2-(diethylamino)ethyl ester) described in Naunyn-Schmiedeberg's Arch Pharmacol (1992) 345:387-393. Thus, the investigation as to whether SDZ 205-557 can antagonize the increase in the contraction height of the above compounds using the longitudinal muscle preparation of the isolated guinea pig ileum can reveal that such increase in the contraction height is the action via activation of 5-HT4 receptors.

T2 sequence (Q62758 whole entry): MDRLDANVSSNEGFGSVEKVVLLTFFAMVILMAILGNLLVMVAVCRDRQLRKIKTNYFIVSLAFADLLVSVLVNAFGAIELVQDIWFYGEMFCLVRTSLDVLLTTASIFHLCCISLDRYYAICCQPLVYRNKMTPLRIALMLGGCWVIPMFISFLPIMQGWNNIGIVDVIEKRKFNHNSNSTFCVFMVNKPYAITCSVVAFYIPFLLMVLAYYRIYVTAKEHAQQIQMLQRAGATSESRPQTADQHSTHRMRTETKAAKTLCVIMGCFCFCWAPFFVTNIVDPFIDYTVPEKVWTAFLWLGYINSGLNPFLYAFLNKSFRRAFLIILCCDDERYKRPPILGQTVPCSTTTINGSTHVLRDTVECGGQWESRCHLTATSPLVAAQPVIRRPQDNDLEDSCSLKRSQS

For `CCCCN1[C@@H]2COC[C@H]1C[C@@H](NC(=O)c1nn(C(C)C)c3ccccc13)C2` [Example 5, N-[endo-9-(n-Butyl)-3-oxa-9-azabicyclo[3.3.1]non-7-yl]-1-isopropyl-indazole-3-carboxamide], the “reverse mutation test (Ames test)” value in data set [1] is “negative”. For the same molecule, the mutagenicity result in data set [1] (overall from Ames, chromosomal aberration and micronucleus tests) was “no mutagenicity was observed”. Besides, the ED50 at 5-HT3 receptor came to 0.0427 mg/kg. Besides, the chromosomal aberration test result in data set [2] was “negative”. The toxicological changes result in data set [3] is reported as “no toxicological changes were observed”. Moreover, in “Micronucleus test”, the micronucleus test result is “negative”. Also, the Gastric-emptying promoting rate in the data set on gastric-emptying (0.03 mg/kg oral) is given as 110.7; in the data set with gastric-emptying (0.1 mg/kg oral) it was 124.2; in the data set on gastric-emptying (0.3 mg/kg oral), 127.5. The molecule further showed a pEC50 on 5-HT4 receptors of 6.00. The “MI (Motility Index)” value in the data set with gastric motility (0.03 mg/kg iv) stood at 145.8%; with gastric motility (0.1 mg/kg iv), 208.2%; with gastric motility (0.3 mg/kg iv), 324.9%. Moreover, the “LMMP: presence or absence of the increase in the contraction height by electrical stimulation” value at 5-HT4 receptor was “+”.
Consider `CCOc1cc(N)c(Cl)cc1C(=O)NCC1CN(Cc2ccc(F)cc2)CCO1` (stereo not shown) [Mosapride, reference compound], for which the Gastric-emptying promoting rate in the data set with gastric-emptying (0.3 mg/kg oral) is 103.5; with gastric-emptying (1 mg/kg oral) it was 125.3; with gastric-emptying (3 mg/kg oral) it was 128.1. Besides, the EC50 at 5-HT4 receptors (ED50 = concentration to cause 50% relaxation of contraction by carbachol (1×10^-6 M), cumulative administration, read-out: Activity (-log ED50) (converted)) is 34.7 µM. The “MI (Motility Index)” value in the data set on gastric motility (1 mg/kg iv) worked out at 151.0%.
